Experimental data published in paper PMC12030284, “Anti-Breast Cancer Properties and In Vivo Safety Profile of a Bis-Carbazole Derivative” (Pharmaceutics, 2025).

Columns and labels:
[1] = system: MDA-MB-231 human breast cancer cells; assay: MTT cell viability assay, MDA-MB-231; format: cell-based
Procedure: (§1) The three cell lines adopted in this work (MCF-7, MDA-MB-231 and MCF-10A) were obtained from the American Type Culture Collection (ATCC, Manassas, VA, USA). MCF-7 human breast cancer cells were cultured in Dulbecco’s modified Eagle’s medium/nutrient mixture Ham F-12 (DMEM/F12), added with 10% fetal bovine serum (FBS) and 100 U mL^−1 penicillin/streptomycin. MDA-MB-231 human breast cancer cells were maintained in DMEM/F12 added with 5% FBS, 1% L-glutamine and 100 U mL^−1 penicillin/streptomycin. MCF-10A human mammary epithelial cells were cultured in DMEM/F12 medium added with 5% horse serum (HS, Thermo Fisher Scientific, Milan, Italy), 100 U mL^−1 penicillin/streptomycin, 0.5 mg mL^−1 hydrocortisone, 20 ng mL^−1 human epidermal growth factor (hEGF), 10 mg mL^−1 insulin, and 0.1 mg mL^−1 cholera enterotoxin (Sigma–Aldrich, Milan, Italy). Cells were cultured at 37 °C in a humidified atmosphere (95% air and 5% CO2) and periodically screened for checking contamination.
(§2) The 3-(4,5-dimethylthiazol-2-y1)-2,5-diphenyltetrazolium Bromide (MTT, Sigma–Aldrich, Milan, Italy) assay was used for determining cell viability. Cells were seeded on forty-eight well plates and cultured in a complete medium. Next, cells were serum-deprived (24 h). Then, cells were exposed to the tested compounds in phenol-red-free medium added with 1% of serum for 72 h. After medium removal, MTT solution was added to each well (0.5 mg/mL) and incubated at 37 °C (2 h). Cells were lysed (DMSO), and the optical density was measured (570 nm) using a microplate reader. Mean absorbance was reported as a percentage versus control, and IC50 values were calculated using GraphPad Prism 8 software (version 8.4.3., GraphPad Inc., San Diego, CA, USA). The selectivity index was obtained by the ratio of IC50 values calculated for normal and cancer cells. Data represent three independent experiments; standard deviations (SD) were reported.

[2] = system: caspase-9; assay: Caspase-Glo 9 assay; format: cell-based, human; conditions: MDA-MB-231 cells, 0.3 µM, 24 h, versus DMSO-treated cells
Procedure: (§3) Caspases-3/7, -8, and -9 activities were determined using the Caspase-Glo® 3/7, 8, and 9 Assay Systems (Promega Corporation, Madison, WI, USA) as previously described.

[3] = system: caspase-8; assay: Caspase-Glo 8 assay; format: cell-based, human; conditions: MDA-MB-231 cells, 0.3 µM, 24 h, versus DMSO-treated cells
Procedure: as §3

[4] = system: MDA-MB-231 cells; assay: TUNEL assay (nuclear DNA damage / apoptosis); format: cell-based, human; conditions: 0.3 µM, 24 h
Procedure: The TUNEL assay was used for apoptosis detection, according to the manufacturer’s instructions (CF^TM488A TUNEL Assay Apoptosis Detection Kit, Biotium, Hayward, CA, USA), with some modifications (ref). Shortly, cells were grown on glass coverslips, then treated with 1 at its IC50 value. After that, they were PBS washed thrice, then methanol-fixed (−20 °C, 15 min). Cells were fixed and incubated with the enzyme and, next, counterstained with DAPI (0.2 mg mL^−1) (10 min, room temperature). Cells were washed three times with cold PBS; the mounting solution was added and observed and imaged using a fluorescence microscope (Leica DM6000, Leica Microsystems Srl, Milan, I-20090, Italy; 20× magnification) with excitation/emission wavelength maxima of 490 nm/515 nm (CF^TM488A) or 350 nm/460 nm (DAPI). Images represent two independent experiments, and representative fields were shown.

[5] = system: MCF-10A human mammary epithelial cells; assay: MTT cell viability assay, MCF-10A; format: cell-based; conditions: 72 h, normal cells, mean ± SD of three experiments
Procedure: as §1, §2

[6] = system: tubulin; assay: In vitro tubulin polymerization assay; format: biochemical; conditions: 1 µM
Procedure: The tubulin polymerization inhibition was detected using the in vitro Tubulin Polymerization Assay Kit (EMD Millipore Corporation, Burlington, MA, USA), following the procedure previously published. Briefly, polymerization reactions were performed in 70 µL final volumes (60 µL of the 60 µM tubulin in 1xPB-GTP and 10 µL of the test substance dissolved in 1xPB-GTP). Paclitaxel and Vinblastine (both at 10 µM) and 1 (1 µM) were dissolved in DMSO. The turbidity variation was measured every 30 s at 350 nm for 90 min. Turbidity (absorbance) readings were used to determine the extent of polymerization [% inhibition = (1 − A350 sample/A350 control) × 100].

[7] = system: caspase-3/7; assay: Caspase-Glo 3/7 assay; format: cell-based, human; conditions: MDA-MB-231 cells, 0.3 µM, 24 h, versus DMSO-treated cells
Procedure: as §3

[8] = Hydrolytic stability test by 1H NMR; format: physicochemical
Procedure: ^1H NMR spectra were recorded at 298 K on a Bruker Avance 400 spectrometer operating at 400 MHz (^1H) and referred to the residual proton deuterated solvent peaks (^1H: (CD3)2SO, δ 2.50).
The hydrolytic chemical stability is an important step in early drug discovery for ensuring the potential development of compounds useful in therapy. […]

[9] = system: actin network in MDA-MB-231 cells; assay: β-actin immunofluorescence; format: cell-based, human; conditions: 0.3 µM, 24 h
Procedure: (§4) Cells grown on glass coverslips in full medium were serum-deprived for 24 h and exposed to 1 for 24 h at its IC50 value concentration. Cells were PBS-washed and fixed (cold methanol, 15 min, −20 °C), then primary antibody in blocking solution was added (4 °C/overnight), as described. The mouse anti-Bid (sc-373939) and anti-β-Actin (69879) and the rabbit anti-β Tubulin (9104) were obtained from Santa Cruz Biotechnology and employed at a 1:100 dilution. Coverslips were washed thrice with PBS, then the secondary antibody Alexa Fluor® 568 conjugate goat-anti-mouse and Alexa Fluor® 488 conjugate goat-anti-rabbit (1:500, Thermo Fisher Scientific, Waltham, MA, USA) was added. Nuclei were DAPI (Sigma Aldrich, Mila, Italy) stained (10 min, 0.2 μg/mL) and PBS washed thrice. For mitochondrial staining, cells were pre-incubated with prewarmed (37 °C) MitoTracker® Deep Red FM probe solution (MitoTracker® Mitochondrion-Selective Probes, Invitrogen European Headquarters, Paisley PA4 9RF, UK) for 20 min (fluorescence excitation = 644, fluorescence emission = 665). A fluorescence microscope (Leica DM 6000) and LAS-X software (Leica Application Suite X, 3.5.7.23225) were used to acquire and process all images.

[10] = system: MCF-7 human breast cancer cells; assay: MTT cell viability assay, MCF-7; format: cell-based
Procedure: as §1, §2

[11] = system: Bid; assay: Bid immunofluorescence and mitochondria staining; format: cell-based, human; conditions: MDA-MB-231 cells, 0.3 µM, 24 h
Procedure: as §4

## Cc1cc(C=NN=Cc2cc(C)c3[nH]c4ccc(Br)cc4c3c2C)c(C)c2c1[nH]c1ccc(Br)cc12 [Compound 1, N,N’-bis-(6-bromo-1,4-dimethyl-9H-carbazol-3-ylmethylene)-hydrazine]
[1]; Homo sapiens, MDA-MB-231, MTT, 72 h, mean ± SD of three experiments
  IC50: 300 ± 200 nM
[1]; ratio of IC50 values for normal (MCF-10A) and cancer cells (MDA-MB-231)
  SI MDA-MB-231: >333.3
[2]
  increase of caspase-9 activity: 40%
[3]
  increase of caspase-8 activity: about 60%
[4]
  TUNEL staining (nuclear DNA damage): TUNEL-positive
[5]
  IC50: > 100000 nM
[6]
  effect on tubulin polymerization reaction: acts as a microtubule stabilizer
[6]; control reaction (DMSO) about 0.41
  final OD350 value of tubulin polymerization: 0.48
[7]
  increase of caspase-3 and -7 activity: about 70%
[8]; DMSO-d6/D2O (90:10), 37 °C, 24 h
  hydrolytic stability (1H NMR spectra changes): no changes were recorded
[8]; solid state
  stability in the solid state: stable in the solid state even years after synthesis
[9]
  actin network morphology: formation of thicker actin bundles
[10]; Homo sapiens, MCF7, MTT, 72 h, mean ± SD of three experiments
  IC50: 600 ± 300 nM
[10]; ratio of IC50 values for normal (MCF-10A) and cancer cells (MCF-7)
  SI MCF-7: >166.7
[11]
  Bid localization: net translocation of Bid into the mitochondrial compartment
